# Source: EPA's ToxValDB 9.5 (doi:10.2903/j.efsa.2010.1526)
# Columns and labels:
# Apis mellifera = conditions: acute; duration: 48 hours; oral; unspecified; mortality
# Bibionidae = conditions: chronic/long-term; duration: 17 days
# Canidae = conditions: chronic; duration: 1 years; oral; Dog Other; clinical chemistry
# Hypoaspis aculeifer = conditions: chronic/long-term; duration: 14 days
# Oncorhynchus mykiss = conditions: acute; duration: 96 hours; mortality
# Rattus norvegicus = conditions: oral
# Tagia sp. = conditions: acute; duration: 14 days; mortality
smiles,measurement,setting,value
C=CCOC(Cn1ccnc1)c1ccc(Cl)cc1Cl (stereo not drawn) [Imazalil],LD50,Apis mellifera,> 35.1 µg/piece
same,NOEC,Bibionidae,0.181 mg/L
same,LD50,"Bird; acute, oral, unspecified, mortality",510 mg/kg-day
same,NOEC,Bird; chronic/long-term,24 mg/kg-day
same,LC50,"Bird; short-term, oral, feed, mortality",> 516 mg/kg-day
same,NOAEL,Canidae,2.5 mg/kg-day
same,NOEC,Hypoaspis aculeifer,107 mg/kg
same,LC50,Oncorhynchus mykiss,1.48 mg/L
same,NOAEL,"Oryctolagus sp.; developmental, development",5 mg/kg-day
same,NOEL,"Oryctolagus sp.; reproduction developmental, reproduction",20 mg/kg-day
same,LD50,"Rattus norvegicus; acute, mortality",227 mg/kg-day
same,NOAEL,"Rattus norvegicus; chronic, duration: 6 months, clinical chemistry",5 mg/kg-day
same,LC50,Tagia sp.,541 mg/kg
